{"source": "patent US4018801A", "about": "“Substituted oxirane compounds” (The Dow Chemical Company, priority 1975, dated 1977)", "key": {"[1]": {"test_system": "Barnyard Grass", "assay": "Pre-emergent control of seed germination, soil drench", "assay_type": "in vivo", "conditions": "Barnyard Grass, about 2 weeks", "from_the_text": "(§1) Four parts by weight of the compound, 0.08 part of sorbitan trioleate (Span 85), and 0.02 part of a sorbitan monooleate polyoxyethylene derivative (Tween 80) are dipersed in 40 milliliters of acetone to produce a concentrate composition in the form of a water-dispersible liquid containing the predetermined oxirane compound as the sole active agent.\n(§2) A portion of each of these concentrate compositions were separately dispersed in portions of water to provide aqueous compositions, containing 0.44 pound of the oxirane compound per 100 gallons of ultimate aqueous mixture.\n(§3) The aqueous compositions were then employed for the treatment of seed beds of good agricultural soil which had been prepared and seeded with the seeds of various grass species and broadleaf plants. The grass species included white winter wheat, cultured rice, pigweeds, crabgrass, cheat grass, wild oats, Johnson grass, barnyard grass and yellow foxtail; and the broadleaf plants included corn. In the treating operations, a predetermined quantity of each of the compositions was applied to separate seedbeds as a soil drench at a rate of about 0.43 acre inch of aqueous composition per acre. The quantities were controlled to supply a substantial uniform dosage in a seedbed equivalent to 1.0, 2.0 and 5.0 pounds of the oxirane compound per acre. These dosages correspond, respectively, to a concentration, within the soil depth penetrated of about 1.6, 3.2 and 8.0 parts by weight of the oxirane compound per million parts by weight of soil. Other seedbeds were similarly seeded with the named plant species but were left untreated to serve as checks.\n(§4) After about 2 weeks the seedbeds were examined to ascertain what control of the growth of seeds had been obtained.\n(§5) were prepared as in Example 32 and similarly employed for the pre-emergencetreatment of various plant species.\n(§6) An aqueous composition containing 2-(α,α,α -trifluoro-m-tolyl)-2-(2,2,2-trichloroethyl)oxirane was prepared as described in Example 32. The composition was then employed according to the procedures of Example 32 except that lower concentrations of the oxirane compound were employed in the composition.\n(§7) The percent control of the various plant species at the employed dosage rate of the 2-(α,α,α-trifluoro-m-tolyl)- 2-(2,2,2-trichloroethyl) supplied by the composition is set forth in the following Table IV."}, "[2]": {"test_system": "Pigweeds", "assay": "Pre-emergent control of seed germination, soil drench", "assay_type": "in vivo", "conditions": "Pig Weeds, about 2 weeks", "from_the_text": "as §1, §2, §3, §4, §5, §6, §7"}, "[3]": {"test_system": "Wild Oats", "assay": "Pre-emergent control of seed germination, soil drench", "assay_type": "in vivo", "conditions": "Wild Oats, about 2 weeks", "from_the_text": "as §1, §2, §3, §4, §5, §6, §7"}, "[4]": {"test_system": "Yellow Foxtail", "assay": "Pre-emergent control of seed germination, soil drench", "assay_type": "in vivo", "conditions": "Yellow Foxtail, 1.0 pounds per surface acre, about 2 weeks", "from_the_text": "as §1, §2, §3, §4, §5, §6, §7"}, "[5]": {"test_system": "Crabgrass", "assay": "Pre-emergent control of seed germination, soil drench", "assay_type": "in vivo", "conditions": "Crabgrass, about 2 weeks", "from_the_text": "as §1, §2, §3, §4, §5\n(§8) Separate aqueous compositions containing the 2-(m-chlorophenyl)-2-(2,2,2-trichloroethyl)oxirane (Cmpd. A) and 2-(m-bromophenyl)-2-(2,2,2-trichloroethyl)oxirane (Cmpd. C) compounds of the present invention were prepared as in Example 32 for comparative per-emergence herbicide tests against noxious grass species with the known 2 -(p-chlorophenyl)-2-(2,2,2-trichloroethyl)oxirane (Cmpd. B) compound and 2-(p-bromophenyl)-2-(2,2,2-trichloroethyl)oxirane (Cmpd. D). The pre-emergence tests were conducted in Example 32 and the results of such tests are set forth below in Table III.\nas §6, §7"}, "[6]": {"test_system": "Johnson Grass", "assay": "Pre-emergent control of seed germination, soil drench", "assay_type": "in vivo", "conditions": "Johnson Grass, about 2 weeks", "from_the_text": "as §1, §2, §3, §4, §5, §8, §6, §7"}, "[7]": {"test_system": "Cheat Grass", "assay": "Pre-emergent control of seed germination, soil drench", "assay_type": "in vivo", "conditions": "5.0 pounds per surface acre, about 2 weeks", "from_the_text": "as §1, §2\nas §3, with “These dosages correspond, respectively, to a concentration, within the soil depth penetrated of about 1.6, 3.2 and 8.0 parts by weight of the oxirane compound per million parts by weight of soil. Other seedbeds were similarly seeded with the named plant species but were left untreated to serve as checks.” left out"}, "[8]": {"test_system": "Cultured Rice", "assay": "Pre-emergent control of seed germination, soil drench", "assay_type": "in vivo", "conditions": "about 2 weeks", "from_the_text": "as §1, §2, §3, §4, §6, §7"}, "[9]": {"test_system": "White Winter Wheat", "assay": "Pre-emergent control of seed germination, soil drench", "assay_type": "in vivo", "conditions": "about 2 weeks", "from_the_text": "as §1, §2, §3, §4, §6, §7"}, "[10]": {"test_system": "Corn", "assay": "Pre-emergent control of seed germination, soil drench", "assay_type": "in vivo", "conditions": "about 2 weeks", "from_the_text": "as §1, §2, §3\nAfter about 2 weeks the seedbeds were examined to ascertain what control of the growth of seeds had been obtained. […]\nas §6, §7"}, "[11]": {"test_system": "Aspergillus terreus", "assay": "Control of fungal plants on nutrient agar", "assay_type": "cell-based", "conditions": "500 parts by weight per million", "description": "(§9) Separate acetone compositions containing 100 and 500 parts, respectively, of each of 2-(p-nitrophenyl)- 2-(2,2,2-trichloroethyl)oxirane and 2-(m-nitrophenyl)- 2-(2,2,2-trichloroethyl)oxirane compounds per million parts by weight of ultimate mixture were prepared by dissolving a pre-determined amount of each of the above compounds in acetone to give the desired concentrations. The solutions were dispersed in melted nutrient agar to produce culture media for fungal plants. The agar solutions were poured into petri dishes and allowed to solidify. The solidified agar surface in each petri dish was inoculated with one species of a fungal plant; the plants employed being Staphylococcus aureus, Candida albicans, Trichophton mentagrophytes, Bacillus subtilis, Aspergillus terreus, Candida pelliculosa, Pullularia pullulans, Mycobacterium phlei, Cephaloascus fragans and Aerobacter aerogenes.\n(§10) The inoculation was carried out by applying droplets of a solution containing the fungal plants to the agar surfaces. The inoculated petri dishes were then incubated for an appropriate period of time and under conditions conducive to the growth of the fungal plants involved.\n(§11) After incubation, the petri dishes were examined to determine the degree of control of the fungal plants."}, "[12]": {"test_system": "Bacillus subtilis", "assay": "Control of fungal plants on nutrient agar", "assay_type": "cell-based", "conditions": "500 parts by weight per million", "description": "as §9, §10, §11"}, "[13]": {"test_system": "Candida albicans", "assay": "Control of fungal plants on nutrient agar", "assay_type": "cell-based", "conditions": "500 parts by weight per million", "description": "as §9, §10, §11"}, "[14]": {"test_system": "Candida pelliculosa", "assay": "Control of fungal plants on nutrient agar", "assay_type": "cell-based", "conditions": "500 parts by weight per million", "description": "as §9, §10, §11"}, "[15]": {"test_system": "Cephaloascus fragans", "assay": "Control of fungal plants on nutrient agar", "assay_type": "cell-based", "conditions": "500 parts by weight per million", "description": "as §9, §10, §11"}, "[16]": {"test_system": "Mycobacterium phlei", "assay": "Control of fungal plants on nutrient agar", "assay_type": "cell-based", "conditions": "500 parts by weight per million", "description": "as §9, §10, §11"}, "[17]": {"test_system": "Pullularia pullulans", "assay": "Control of fungal plants on nutrient agar", "assay_type": "cell-based", "conditions": "500 parts by weight per million", "description": "as §9, §10, §11"}, "[18]": {"test_system": "Staphylococcus aureus", "assay": "Control of fungal plants on nutrient agar", "assay_type": "cell-based", "conditions": "500 parts by weight per million", "description": "as §9, §10, §11"}, "[19]": {"test_system": "Trichophton mentagrophytes", "assay": "Control of fungal plants on nutrient agar", "assay_type": "cell-based", "conditions": "500 parts by weight per million", "description": "as §9, §10, §11"}}}
{"smiles": "O=[N+]([O-])c1cccc(C2(CC(Cl)(Cl)Cl)CO2)c1", "note": "(centres unmarked) [Example 2, 2-(m-nitrophenyl)-2-(2,2,2-trichloroethyl)oxirane]", "values": [{"measurement": "Percent Pre-Emergent Control of Seed Germination", "setting": "[1]; 1.0 pounds per surface acre", "value": 50, "unit": "%"}, {"measurement": "Percent Pre-Emergent Control of Seed Germination", "setting": "[1]; 2.0 pounds per surface acre", "value": 50, "unit": "%"}, {"measurement": "Percent Pre-Emergent Control of Seed Germination", "setting": "[1]; 5.0 pounds per surface acre", "value": 95, "unit": "%"}, {"measurement": "Percent Pre-Emergent Control of Seed Germination", "setting": "[2]; 1.0 pounds per surface acre", "value": 85, "unit": "%"}, {"measurement": "Percent Pre-Emergent Control of Seed Germination", "setting": "[2]; 2.0 pounds per surface acre", "value": 95, "unit": "%"}, {"measurement": "Percent Pre-Emergent Control of Seed Germination", "setting": "[2]; 5.0 pounds per surface acre", "value": 95, "unit": "%"}, {"measurement": "Percent Pre-Emergent Control of Seed Germination", "setting": "[3]; 1.0 pounds per surface acre", "value": 40, "unit": "%"}, {"measurement": "Percent Pre-Emergent Control of Seed Germination", "setting": "[3]; 2.0 pounds per surface acre", "value": 50, "unit": "%"}, {"measurement": "Percent Pre-Emergent Control of Seed Germination", "setting": "[3]; 5.0 pounds per surface acre", "value": 80, "unit": "%"}, {"measurement": "Percent Pre-Emergent Control of Seed Germination", "setting": "[4]", "value": 100, "unit": "%"}, {"measurement": "Percent Pre-Emergent Control of Seed Germination", "setting": "[5]; 1.0 pounds per surface acre", "value": 95, "unit": "%"}, {"measurement": "Percent Pre-Emergent Control of Seed Germination", "setting": "[5]; 2.0 pounds per surface acre", "value": 100, "unit": "%"}, {"measurement": "Percent Pre-Emergent Control of Seed Germination", "setting": "[5]; 5.0 pounds per surface acre", "value": 100, "unit": "%"}, {"measurement": "Percent Pre-Emergent Control of Seed Germination", "setting": "[6]; 1.0 pounds per surface acre", "value": 70, "unit": "%"}, {"measurement": "Percent Pre-Emergent Control of Seed Germination", "setting": "[6]; 2.0 pounds per surface acre", "value": 85, "unit": "%"}, {"measurement": "Percent Pre-Emergent Control of Seed Germination", "setting": "[6]; 5.0 pounds per surface acre", "value": 95, "unit": "%"}, {"measurement": "Percent Pre-Emergent Control of Seed Germination", "setting": "[7]", "value": 100, "unit": "%"}, {"measurement": "Percent Pre-Emergent Control of Seed Germination", "setting": "[8]; 1.0 pounds per surface acre", "value": 100, "unit": "%"}, {"measurement": "Percent Pre-Emergent Control of Seed Germination", "setting": "[8]; 2.0 pounds per surface acre", "value": 95, "unit": "%"}, {"measurement": "Percent Pre-Emergent Control of Seed Germination", "setting": "[8]; 5.0 pounds per surface acre", "value": 100, "unit": "%"}, {"measurement": "Percent Pre-Emergent Control of Seed Germination", "setting": "[9]; 1.0 pounds per surface acre", "value": 90, "unit": "%"}, {"measurement": "Percent Pre-Emergent Control of Seed Germination", "setting": "[9]; 2.0 pounds per surface acre", "value": 50, "unit": "%"}, {"measurement": "Percent Pre-Emergent Control of Seed Germination", "setting": "[9]; 5.0 pounds per surface acre", "value": 95, "unit": "%"}, {"measurement": "Percent Pre-Emergent Control of Seed Germination", "setting": "[10]; 1.0 pounds per surface acre", "value": 100, "unit": "%"}, {"measurement": "Percent Pre-Emergent Control of Seed Germination", "setting": "[10]; 2.0 pounds per surface acre", "value": 50, "unit": "%"}, {"measurement": "Percent Pre-Emergent Control of Seed Germination", "setting": "[10]; 5.0 pounds per surface acre", "value": 0, "unit": "%"}, {"measurement": "degree of control of the fungal plants", "setting": "[11]", "value": "complete control and kill"}, {"measurement": "degree of control of the fungal plants", "setting": "[12]", "value": "complete control and kill"}, {"measurement": "degree of control of the fungal plants", "setting": "[13]", "value": "complete control and kill"}, {"measurement": "degree of control of the fungal plants", "setting": "[14]", "value": "complete control and kill"}, {"measurement": "degree of control of the fungal plants", "setting": "[15]", "value": "complete control and kill"}, {"measurement": "degree of control of the fungal plants", "setting": "[16]", "value": "complete control and kill"}, {"measurement": "degree of control of the fungal plants", "setting": "[17]", "value": "complete control and kill"}, {"measurement": "degree of control of the fungal plants", "setting": "[18]", "value": "complete control and kill"}, {"measurement": "degree of control of the fungal plants", "setting": "[19]", "value": "complete control and kill"}]}
